Data as given in patent US20140106387A1, “METHOD FOR CONTROLLING NAD(P)/NAD(P)H RATIO BY OXIDOREDUCTASE” (MD BIOALPHA CO., LTD., priority 2006, published 2014).

Columns and labels:
[1] = system: HepG2 cells; experiment: intracellular NADH / NAD(P)H concentration in HepG2 cells; format: cell-based, human
Method: A water-soluble tetrazolium salt was used to monitor the amount of NAD(P)H through its reduction to a yellow colored formazan dye. The total amount of NAD(P)H within viable cells in the medium was determined periodically by a spectrophotometer. Cells were seeded in 96-well plates (2×10^4 cells/well) and were cultured in 100 μl of a medium containing fetal bovine serum (FBS) and antibiotics for 24 hours. Immediately after treatment of the cells with a candidate compound (e.g., pyrano-1,2-naphthoquinone) at indicated concentrations and a 1/10 volume of a CCK-8 solution (Dojindo Molecular Technology), absorbance measurements were carried out using a spectrophotometer. […] In addition, a medium blank was prepared with only medium and physiological saline. In order to monitor monochromatic fluorescence (350 nm), light was illuminated using a 75 W xenon arc lamp directed via a 10 Hz chopper wheel; specific fluorescence intensity was measured at a wavelength of 405±15 nm and 460±10 nm.

[2] = system: HepG2 cells; experiment: mitochondrial oxygen consumption (Clark-type oxygen electrode) in HepG2 cells; format: cell-based, human
Excerpt: FIG. 22 is a graph showing monitoring results of mitochondrial oxygen consumption using a Clark-type oxygen electrode;

[3] = spontaneous locomotor activity; format: in vivo, mouse; settings: C57BL/6 DIO mice, 3 hours after administration, measured for 7 hours
Method: Pyrano-1,2-naphthoquinone was administered to C57BL/6 DIO mice, and 3 hours later spontaneous locomotor activity was measured using Versa MAX Activity Monitors & Analyzer (AccuSan Instruments, Columbus, Ohio, USA). […] In order to distinguish between spontaneous locomotor and stereotypic/grooming behavior, animal activity was measured by taking continuous interference of two different scanning lines caused by mice as an effective determination standard. The pyrano-1,2-naphthoquinone-administered group, the vehicle-administered group and the control group were respectively placed in each measuring apparatus, and activity and motion of animals were measured for 7 hours. For acclimation of the animals to the new environment, mice were placed in the apparatus 2 hours prior to measurement.

[4] = liver and muscle histology (H&E, EM) in ob/ob mice; format: in vivo, mouse; settings: 56 days
Method: The removed tissues were cut into a proper size, fixed in 10% formalin, washed with water, and embedded in paraffin to prepare blocks, according to a conventional method. The thus-prepared blocks were sectioned into a 4 μm thickness and subjected to hematoxylin and eosin (H&E) staining for observation of general changes.
For observation of cellular microstructures, the removed tissues were sliced into a size of 1 mm^3, pre-fixed in 2.5% glutaraldehyde (0.1M PBS, pH 7.4, 4° C.) for 2 to 4 hours, washed, and post-fixed in a 1% osmium tetroxide solution for 2 hours. Then, according to a conventional method, the tissues were dehydrated with serial concentrations of ethanol and the solvent was replaced with propylene oxide. The tissues were embedded in an epoxy resin mixture, and the embedded tissues were subjected to thermal polymerization to prepare blocks. The thus-prepared blocks were sectioned into a thickness of 0.5 to 1 μm using a ultramicrotome and stained with toludine blue. Observation sites were selected under a light microscope and the tissues were ultrasectioned to a thickness of 60 to 70 nm. The ultrasectioned specimens were subjected to dual staining of uranyl acetate and lead citrate and were observed under a transmission electron microscope (H-600, Hitachi, Japan) at an accelerating voltage of 75 kV.
In order to examine fat accumulation in the liver tissue, animals were laparotomized 56 days after administration of pyran-1,2-naphthoquinone, and H&E staining and EM examination were performed on the liver tissue.

[5] = system: HepG2 cells; experiment: mitochondrial membrane potential (TMRE fluorescence) in HepG2 cells; format: cell-based, human; settings: NQO1-proficient HepG2 cells
Method: For determination of the inner mitochondrial membrane potential (ΔΨm), 20 nM of TMRE (tetramethylrhodamine ethyl ester) as a fluorescent indicator was continuously applied to be loaded on cells. In order to monitor mitochondrial Ca^2+, cells on glass coverslips were loaded with 10 μM Rhod-2 AM via cold loading/warm incubation. In order to monitor cytosolic Ca^2+, cells were co-loaded with 10 μM Fluo-4 AM at 37′C for 30 min. The cells were washed twice with a KB solution, and mounted in a perfusion chamber. Fluorescent imaging was taken using a confocal laser scanning microscope (LSM-510 META, Carl Zeiss) at a magnification of ×200 and ×400, in conjunction with appropriate laser lines and a filter set. Image analysis was carried out using LSM-510 META software (Zeiss). Images for TMRE (red fluorescence), Rhod-2 (red fluorescence) and Fluo-4 (green fluorescence) were obtained using an inverted Zeiss 510META laser-scanning confocal microscope equipped with ×63 numerical aperture, 1.4 oil-immersion planapochromat lens. Green fluorescence and red fluorescence were illuminated with light of 488 nm and 543 nm. Incident light was passed through a 545 nm dichroic mirror and observed via a 500 to 530 nm band-pass (green) filter and a 560 nm long-pass (red) barrier filter.
However, such effects were not observed in HEK293 cells. […]

## CC1(C)CCC2=C(O1)c1ccccc1C(=O)C2=O [βL, 2,2-Dimethyl-3,4-dihydro-2H-benzo[h]chromene-5,6-dione]
[1]; HepG2 cells having NQO1 activity, NAD(P)H fluorescence
  decrease of NAD(P)H: about 40%
[1]; HepG2 having an NQO1 activity, treatment for 2 hours, real-time measurement
  intracellular NADH concentration: concentration-dependent decrease of NADH
[2]
  mitochondrial oxygen consumption: increased
[3]
  spontaneous locomotor activity: significant difference in the motion and activity of animals
[4]
  EM examination on liver tissues: remarkably decreased fat vacuoles and glycogen stores
  EM examination on muscle tissue of animal limbs: recovery of normal mitochondrial morphology
  H&E staining on liver tissue: almost all fat vacuoles have disappeared
[5]
  decrease of TMRE fluorescence: about 20%
